According to patent publication US20230346773A1, “USE OF PCSK9 INHIBITOR IN PREPARATION OF PRODUCT FOR TREATING MULTIPLE DISEASES” (priority 2020, published 2023):
Marks after values point to notes of the source that are not given here.

Experiments:
[1] = test system: vitiligo guinea pig model caused by hydroquinone depigmentation; test: Vitiligo guinea pig model caused by hydroquinone depigmentation: counts of epidermal MC and melanin-granule-containing basal cells; assay type: in vivo; conditions: guinea pig skin after hydroquinone decolorization, drug once a day for 30 days, n = 10, x ± s; for Epidermal melanocyte count: average number of MCs in each 100 epidermal basal cells; for Basal cells containing melanin granules count: average number per 100 epidermal basal cells
Experimental: 10 in each group, Half male and female. Except for the blank control group, the other groups were smeared with 5% hydroquinone in the hair removal area for decolorization, 0.5 mL each time, twice a day, and the animals in the blank control group were smeared with an equal amount of normal saline every day. […] After modeling, the drug was administered in the above manner, once a day for 30 days.
After the observation, the mice were sacrificed, and the skin tissue on the back about 3 cm×3 cm was cut for histopathological examination.
The excised mouse skin tissue was fixed in 10% formalin for 1 hour, washed with running water for 3-4 min, and placed into a phosphate buffer solution (pH 7.4) containing 0.1% dihydroxyphenylalanine, and let stand at 37° C. for 1 hour. Then it was replaced with fresh Dopa reagent and left at 37° C. for 12 hours, rinsed with running water, and fixed with Bouin's solution continuously for 24 h. After the specimens were taken out, it was rinsed with running water for 4 hours, dehydrated, cleared in xylene, embedded in paraffin, deparaffinized to water, and stained with hematoxylin-eosin for contrast. Dehydrated and routinely mounted. After Dopa-oxidase staining, brownish-black staining was MC positive.
The excised mouse skin tissue was fixed in 10% formalin, dehydrated, cleared with xylene, embedded in paraffin, sectioned, deparaffinized to water, washed with distilled water several times, then stained with Lillie reagent, soaked with ferric chloride and potassium ferricyanide mixed solution for 15-20 minutes, then differentiated with 1% acetic acid aqueous solution for several minutes, washed with distilled water several times, then quickly dehydrated with 95% ethanol and absolute ethanol, cleared in xylene, and sealed with neutral gum. If melanin was dark green after Lillie reagent staining, it was positive.

rabbit ear acne model = test: Rabbit ear acne model induced by 2% coal tar; assay type: in vivo, New Zealand rabbits; conditions: n = 10; for Skin thickness: rabbit ear epidermis; for Hair follicle area / Sebaceous gland diameter: rabbit ear; for Histological grading of acne: number of animals graded − / Histological grading of acne: number of animals graded 1+ / Histological grading of acne: number of animals graded 2+ / Histological grading of acne: number of animals graded 3+: right ear; for Histological grading of acne: number of animals graded −: grade 0: only loose keratinized cells in the infundibulum, without acne; for Histological grading of acne: number of animals graded 1+: grade 1: small amount of dense keratinized material, infundibulum not expanded; for Histological grading of acne: number of animals graded 2+: grade 2: moderately dense keratinized material extending to sebaceous glands, infundibulum expands; for Histological grading of acne: number of animals graded 3+: grade 3: extensive keratinized material, severe expansion of hair follicles
Text: The inner side of the right ear of the rabbits was taken as the observation area, the left ear of all rabbits was used as the self-negative control, and 95% alcohol was applied. The inner side of the right ear of the model group and the treatment group were smeared with 2% coal tar (Alfa Aesar China Company, 2% coal tar solution made with 95% alcohol), and evenly applied to the opening of the ear canal on the inner side of the rabbit ear with a sterile cotton swab in a range of about 2 cm×2 cm, once a day, 0.5 mL each time. Then the previous application was wiped with warm water. […] 18 hours after the last coating, the samples were sacrificed, fixed in 10% formaldehyde, embedded in paraffin, and stained with HE for histopathological analysis.
Histological grading standard of the acne model: […], according to histology. Grade 0 means that there are only loose keratinized cells in the infundibulum, without acne forming the “1”; grade 1: the skin on the surface of the rabbit ear is red, or a small amount of dense keratinized material is seen in the infundibulum of the hair follicle, and the infundibulum is not expanded “+”; grade 2: moderately dense keratinized material is seen in the infundibulum of the hair follicle, and it extends to the sebaceous glands, with the proliferation of sebaceous gland ducts, the infundibulum expands by “2+”; grade 3: extensive keratinized material in the hair follicle. Tight keratin embolism in hair follicles causes severe expansion of hair follicles, obvious hyperplasia of sebaceous duct epithelium, skin bulges and scars, and some sebaceous glands degenerate into “3+”.
Histopathological changes were observed under a microscope, and the thickness of 5 different epidermises on a slice was measured with the Biomias99 image analysis system, and the average value was calculated; the area of two hair follicles with the same position and the most complete structure and the diameter of four sebaceous glands were detected, and the average value of each was calculated, and then the data of the left and right external auditory canals of each group were subtracted to obtain the difference in the thickness of the epidermis, the difference in hair follicle area and the diameter of the sebaceous gland in the left and right ears of each rabbit.

[2] = test system: hair follicles / hair growth in depilated C57BL/6 mice; test: Hair growth in C57BL/6 mice after rosin/paraffin depilation; assay type: in vivo; conditions: for Time from hair growth to the same length as the hair in the non-experimental area / Time to grow new hair / Time to match the length of hair in the non-experimental area: back hair removal area of mice; for Black skin duration / Skin black-turning time / Skin grayish-black-turning time: hair removal area on the back of mice; for Skin black-turning time / Skin grayish-black-turning time: after hair removal
Experimental: SPF grade C57BL/6 mice were selected and numbered according to their weight. They were randomly divided into compound group 1 (skin applied with 2% R-IMPP solution), compound group 2 (skin applied with 2% PF 06446846 solution), and compound group 3 (skin applied with 2% SBC-115076 solution), compound group 4 (skin applied with 2% SBC-110736 solution), monoclonal antibody group 1 (PCSK9subcutaneous injection monoclonal antibody ab81041, 5 mg/kg·d), monoclonal antibody group 2 (Subcutaneous injection of Evolocumab, 5 mg/kg·d), monoclonal antibody group 3 (subcutaneous injection of Alirocumab, 5 mg/kg·d), PCSK9 RNA interference group-1 (skin applied with 2% PCSK9 small interfering RNA-1 solution), PCSK9 RNA interference Group-2 (skin applied with 2% PCSK9 small interfering RNA-2 solution), PCSK9 RNA interference group-3 (skin applied with 2% PCSK9 small interfering RNA-3 solution), polypeptide group (subcutaneous injection of Abcam company ab32727, 3 mg/kg·d), positive control group (skin applied with 2% minoxidil solution), negative control group (skin applied with 60% ethanol), and model control group (skin applied with 60% ethanol), 10 mice in each group, half male and half female. After the mice were anesthetized with ether, they were coated on the back with a mixture of rosin and paraffin (1:1) after hot melting, and then peeled off after it solidified and hardened. The back of the mouse was cleaned to be hairless and without injuries. The depilation area was about 3 cm×4 cm. From the 2nd day after depilation, the corresponding drugs were applied to the hair removal area, twice a day, 0.5 mL per animal each time, and subcutaneously injected once a week.
From the second day after application, observe the daily color change of the skin on the back of the mice to determine the growth state of the hair follicles and visually observe the hair growth in the depilation area, and score the new hair growth in the depilation area once a day. Five mice in each group were reserved for 40 days of visual observation, and the growth of back hair was recorded.
On the 17th day, five mice in each group were sacrificed by cervical dislocation. The samples were taken from the same part of the back parallel to the spine, fixed with 10% formaldehyde, dehydrated, embedded in paraffin, sectioned, stained with HE, and sealed with neutral gum. Then the histology of hair follicles was observed under light microscope, and morphological staging of hair follicles was performed. According to the international hair cycle scoring method, the hair follicles were scored as follows: 100 points for growth stage VI, 200 points for early regression, 300 points for middle regression, and 400 points for late regression. 50 hair follicles were randomly selected from each mouse, the cycle of the hair follicles in each group was determined, and the average hair cycle score and the percentage of hair follicles in the growth phase VI, early regression, middle regression, and late regression were calculated.

Compound | Epidermal melanocyte count [1] | Basal cells containing melanin granules count [1] | Skin thickness (rabbit ear acne model) [mm] | Hair follicle area (rabbit ear acne model) | Sebaceous gland diameter (rabbit ear acne model) [mm] | Histological grading of acne: number of animals graded − (rabbit ear acne model) | Histological grading of acne: number of animals graded 1+ (rabbit ear acne model) | Histological grading of acne: number of animals graded 2+ (rabbit ear acne model) | Histological grading of acne: number of animals graded 3+ (rabbit ear acne model) | Time from hair growth to the same length as the hair in the non-experimental area [2] | Time to grow new hair [2] | Time to match the length of hair in the non-experimental area [2] | Black skin duration [2] | Skin black-turning time [2] | Skin grayish-black-turning time [2]
ALN-PCS [RNA interference group 3] | 33.8 ± 2.7 | 35.3 ± 3.1 | 0.1987 ± 0.0185 | 0.1921 ± 0.0933* mm^2 | 0.0615 ± 0.0476 | 5 | 4 | 1 | 0 | 14.26* days | 6.96* days | 21.38* days | 12.16* days | 6.08* days | 18.52* days
CC(=O)Nc1ccc(C(=O)N2CCN(c3ccc(C)cc3)CC2c2ccccc2)cc1 (stereo not drawn) [Compound group 4, SBC-110736] | 34.6 ± 2.6 | 36.8 ± 3.7 | 0.2276 ± 0.0193 | 0.2853 ± 0.0879* mm^2 | 0.0561 ± 0.0362 | 5 | 2 | 3 | 0 | 11.87* days | 6.98* days | 18.46* days | 12.32* days | 5.78* days | 18.46* days
O=C(c1ccc(-n2nnc3cccnc32)cc1)N(c1ncccc1Cl)[C@@H]1CCCNC1 [Compound group 2, PF 06446846] | 39.3 ± 3.2 | 38.8 ± 3.9 | 0.1968 ± 0.0121 | 0.2353 ± 0.0812* mm^2 | 0.0467 ± 0.0313 | 7 | 2 | 1 | 0 | 10.46* days | 6.33* days | 17.69* days | 10.86* days | 5.45* days | 17.32* days
Cc1cc(C(=O)C2=C(O)C(=O)N(CCCN3CCOCC3)C2c2ccncc2)ccc1OCc1ccccc1 (stereo not drawn) [Compound group 3, SBC-115076] | 36.1 ± 2.8 | 36.9 ± 3.6 | 0.2245 ± 0.0185 | 0.2836 ± 0.0851* mm^2 | 0.0542 ± 0.0346 | 5 | 3 | 2 | 0 | 11.52* days | 6.95* days | 19.35* days | 11.65* days | 5.63* days | 18.12* days
COc1ccc(CCC(=O)N(c2nccc3ccccc23)[C@@H]2CCCNC2)cc1 [Compound group 1, R-IMPP] | 33.6 ± 2.9 | 36.5 ± 3.8 | 0.2433 ± 0.0196 | 0.2726 ± 0.0842* mm^2 | 0.0512 ± 0.0327 | 6 | 3 | 1 | 0 | 11.14* days | 6.92* days | 18.06* days | 14.29* days | 5.96* days | 20.25* days
Inclisran [RNA interference group 2] | 32.6 ± 2.8 | 36.1 ± 3.2 | 0.1856 ± 0.0179 | 0.1836 ± 0.0856* mm^2 | 0.0561 ± 0.0423 | 6 | 3 | 1 | 0 | 14.12* days | 6.92* days | 20.16* days | 11.87* days | 5.66* days | 18.23* days
Alirocumab [Monoclonal antibody group 3] | 43.5 ± 3.6 | 39.6 ± 3.7 | 0.1547 ± 0.0149 | 0.1526 ± 0.0723* mm^2 | 0.0435 ± 0.0285 | 9 | 1 | 0 | 0 | 10.13* days | 6.06* days | 16.75* days | 13.43* days | 5.35* days | 16.65* days
